In paper PMC9967275, “Screening the Pathogen Box to Discover and Characterize New Cruzain and TbrCatL Inhibitors” (Pathogens, 2023):

Experiments:
cruzain = cruzain (Trypanosoma cruzi, UniProt P25779); assay: biochemical; conditions: for Cruzain 0’ Inhibition / Cruzain 10’ Inhibition: sheet "Screening results"
Summary of the method: (§1)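 Recombinant enzymes assayed by Z-Phe-Arg-AMC cleavage at 25 °C, fluorescence 340/440 nm over 5–7 min, with 10 min or no enzyme–compound preincubation.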

TbrCatL = target: T1, TbrCatL (Trypanosoma brucei rhodesiense, UniProt Q95PM0); assay: TbrCatL enzymatic inhibition assay (cleavage of fluorogenic substrate Z-FR-AMC); type: biochemical; conditions: for TbrCatL 0’ Inhibition / TbrCatL 10’ Inhibition: sheet "Screening results"
T1 construct: Conor Caffrey (University of California San Diego)
Summary of the method: as §1

[1] = 0’ (no pre-incubation), sheet Screening results
[2] = 10’ (pre-incubation), sheet Screening results
[3] = 0’ (pre-incubation time), Pathogen Box screening results
[4] = 10’ (pre-incubation time), Pathogen Box screening results
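Also: at 5 µM compound concentration.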

T1 sequence (Q95PM0 entry or part of it): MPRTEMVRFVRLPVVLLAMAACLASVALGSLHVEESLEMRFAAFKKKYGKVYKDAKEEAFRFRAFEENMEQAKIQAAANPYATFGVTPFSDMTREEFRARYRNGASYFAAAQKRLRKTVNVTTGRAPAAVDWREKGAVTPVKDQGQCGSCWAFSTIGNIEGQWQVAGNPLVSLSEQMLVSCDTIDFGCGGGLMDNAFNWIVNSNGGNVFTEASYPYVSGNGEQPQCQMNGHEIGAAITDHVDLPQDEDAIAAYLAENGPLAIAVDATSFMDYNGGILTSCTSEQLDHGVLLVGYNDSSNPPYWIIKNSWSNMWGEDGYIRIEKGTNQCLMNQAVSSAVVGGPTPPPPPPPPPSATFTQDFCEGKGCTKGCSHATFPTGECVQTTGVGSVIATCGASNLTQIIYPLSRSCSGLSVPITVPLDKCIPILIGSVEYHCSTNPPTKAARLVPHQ
Sequence of cruzain (P25779 123-337 limits assumed): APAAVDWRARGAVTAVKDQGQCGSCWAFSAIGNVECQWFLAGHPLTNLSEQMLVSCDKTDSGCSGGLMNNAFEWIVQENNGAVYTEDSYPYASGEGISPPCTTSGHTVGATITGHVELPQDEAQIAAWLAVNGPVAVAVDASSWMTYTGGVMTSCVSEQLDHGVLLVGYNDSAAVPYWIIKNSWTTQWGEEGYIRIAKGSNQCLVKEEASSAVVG

Row | Structure (SMILES) | Cruzain 0’ Inhibition (cruzain; 0’ (pre-incubation time)) | Cruzain 10’ Inhibition (cruzain; 10’ (pre-incubation time)) | TbrCatL 0’ Inhibition (TbrCatL; 0’ (pre-incubation time)) | TbrCatL 10’ Inhibition (TbrCatL; 10’ (pre-incubation time)) | Cruzain Inhibition 0’ (cruzain; [1]) | Cruzain Inhibition 10’ (cruzain; [2]) | TbrCatL Inhibition 0’ (TbrCatL; [1]) | TbrCatL Inhibition 10’ (TbrCatL; [2]) | further results
1 | Clc1cccc(CO[C@H]2CCc3ccccc3[C@@H]2n2ccnn2)c1 [MMV676159] | -3% | -1.8% | -13% | -6% |  |  |  |  | 
2 | c1ccc(Oc2ccc(-c3cc(C4CCOCC4)[nH]n3)cc2)cc1 [MMV687762] |  |  |  |  | 9% | 7% | 17% | 12% | 
3 | O=C(Nc1ccnc(-c2cccnc2)n1)c1cc(C(F)(F)F)cc(C(F)(F)F)c1 [MMV019838] |  |  |  |  | 2% | 16% | -8% | -5% | 
4 | Clc1ccc(CN2CCN(C3=NCCN3)CC2)cc1Cl [MMV689060] |  |  |  |  | -3% | -0.1% | -5% | 2% | 
5 | CN1CCN(c2nccc3[nH]c(-c4cccc(F)c4)cc23)CC1 [MMV393144] | -15% | -11% | -8.5% | -8% |  |  |  |  | 
6 | Nc1ncnc2c1c(-c1cnc3ccccc3c1)nn2CC1CCNCC1 [MMV688411] | -0.3% | 5.5% | 1.7% | 3.7% |  |  |  |  | 
7 | Cc1cccc(NC(=O)c2cc(S(=O)(=O)N(C)c3ccc(F)cc3)ccc2Cl)n1 [MMV676528] |  |  |  |  | 3.7% | 6% | -3% | 1.8% | 
8 | CCS(=O)(=O)N(Cc1ccco1)Cc1cc2ccc(C)cc2[nH]c1=O [MMV676398] | 6.5% | 28% | 8% | 9% |  |  |  |  | 
9 | COc1ccc(OC(C)C(=O)Nc2ccc(Cl)cc2C)cc1 (stereo not drawn) [MMV202458] |  |  |  |  | -14% | -11% | -16% | -19% | 
10 | CCCS(=O)(=O)N1CCC(CO)(Cc2ccccc2C(F)(F)F)CC1 [MMV001059] | 0.9% | -1.3% | -3.7% | -0.8% |  |  |  |  | 
11 | CC[C@H](CO)NCCN[C@H](CC)CO [MMV687801] |  |  |  |  | -4.5% | 0.4% | 7% | 0.4% | 
12 | CCCNC(=O)N1CCC2(CC1)CC(=O)c1cc(C)ccc1O2 [MMV085230] | 15% | 18% | 8.5% | 13% |  |  |  |  | 
13 | Nc1c2c(nc3sc4c(c13)CCCC4)CCCC2 [MMV676588] |  |  |  |  | 11% | 13% | 14% | 2% | 
14 | COC(=O)c1c(NC(=O)c2cc3ccccc3oc2=O)sc2c1CCN(Cc1ccccc1)C2 [MMV676480] |  |  |  |  | 24% | 5.6% | 0.5% | -3.2% | 
15 | NCCN(C(=O)c1ccc(Cl)cc1Cl)c1ccc(OCc2ccc(Cl)cc2)cc1 [MMV688371] |  |  |  |  | 9% | 12% | 6% | 1% | 
16 | CC(C)(C)n1nc(-c2ccccc2)c2c(N)ncnc21 [MMV688548] |  |  |  |  | 8% | 10% | 20% | 12% | 
17 | N#CCN(CCCCN1CCN(c2ccc(F)cc2)CC1)C(=O)OCc1ccccc1 [MMV675997] |  |  |  |  | 1.2% | 3.2% | 1.6% | 5% | 
18 | CS(=O)(=O)Cc1nc2ccccc2oc1=O [MMV553002] |  |  |  |  | 18% | 12% | 19% | 19% | 

Row | Structure (SMILES) | Cruzain 0’ Inhibition (cruzain; 0’ (pre-incubation time)) | Cruzain 10’ Inhibition (cruzain; 10’ (pre-incubation time)) | TbrCatL 0’ Inhibition (TbrCatL; 0’ (pre-incubation time)) | TbrCatL 10’ Inhibition (TbrCatL; 10’ (pre-incubation time)) | Cruzain Inhibition 0’ (cruzain; [1]) | Cruzain Inhibition 10’ (cruzain; [2]) | TbrCatL Inhibition 0’ (TbrCatL; [1]) | TbrCatL Inhibition 10’ (TbrCatL; [2]) | further results
19 | COc1cncc(-c2cncc(N3CCN(c4ccncc4)CC3)n2)c1 [MMV085071] | 3.8% | -19% | -0.1% | -10% |  |  |  |  | 
20 | CS(=O)(=O)c1ccccc1C(=O)N(Cc1ccccc1)c1ccccc1 [MMV688798] |  |  |  |  | 13% | 1.2% | 1.5% | -1.9% | 
21 | CC1(C)Cc2c(c(N3CCOCC3)nc3snc(Br)c23)CO1 [MMV687794] | 8% | 27% | 4.7% | 25% |  |  |  |  | 
22 | O=C(Nc1cccnc1)c1c(O)c2cccc3c2n(c1=O)CC3 [MMV676395] |  |  |  |  | 10% | 8% | 17% | 19% | 
23 | Cc1cc(C(=O)Nc2ccc(-c3ccccc3)cc2)no1 [MMV020152] |  |  |  |  | 3.7% | -0.4% | -2% | 1.1% | 
24 | CN1CCN(c2nccc3nc(-c4ccc(F)c(F)c4)[nH]c23)CC1 [MMV676260] | -9% | 1.2% | 0.7% | 5% |  |  |  |  | 
25 | COc1cc(-c2cc(-c3ccc(S(C)(=O)=O)cc3)cnc2N)ccc1O [MMV010576] | 1.1% | 4% | 0.5% | 0.9% |  |  |  |  | 
26 | COc1ccc2nccc(NC(=O)C3CCN(CCc4ccc(Cl)cc4)CC3)c2n1 [MMV688844] | 1.4% | -1.1% | 4% | -1.5% |  |  |  |  | 
27 | O=C(NCc1cc(Cl)cc(Cl)c1)c1c(C(F)(F)F)nc2ccccn12 [MMV687699] | 3.3% | 7% | -1.6% | -6% |  |  |  |  | 
28 | O=C(Nc1cccc(Cl)c1)c1cnc(N2CCN(c3ccncc3)CC2)c(Cl)c1 [MMV024406] | 17% | 25% | 3% | 20% |  |  |  |  | 
29 | Cc1nnc(NCc2cccc(Cl)c2)c2ccccc12 [MMV676555] |  |  |  |  | -1.4% | 3.2% | 3% | -4.6% | 
30 | O=C1Nc2ccc(Br)cc2C12NCCc1c2[nH]c2ccccc12 (stereo not drawn) [MMV006239] |  |  |  |  | 7.5% | 2.2% | 2.6% | 2.6% | 
31 | Nc1ncnc2c1ncn2[C@@H]1O[C@H](COS(=O)(=O)NC(=O)c2ccccc2O)[C@@H](O)[C@H]1O [MMV687700] | 3% | 10% | 3% | 17% |  |  |  |  | 
32 | COc1ccc(-c2nn(C(C)C)c3ncnc(N)c23)cc1OC [MMV675993] | -7% | -1.8% | -7% | -5.6% |  |  |  |  | 
33 | Nc1ncnc2c1c(Cc1cccc3ccccc13)nn2CC1CCNCC1 [MMV676182] | -4.4% | 4.5% | 1.4% | 3.4% |  |  |  |  | 
34 | O=C(NCc1ccoc1)N1CCN(Cc2ccc3c(c2)OCO3)CC1 [MMV688553] |  |  |  |  | -7% | 0.9% | -1.2% | -6.4% | 
35 | COc1cc(C(F)(F)F)nc2ccc(C)c(N)c12 [MMV047015] | 1.1% | 5.5% | 15% | 4% |  |  |  |  | 
36 | CCC(C)NC(=O)c1ccc(NC(=O)C2(c3ccccc3)CCCC2)cc1 (stereo not drawn) [MMV146306] |  |  |  |  |  |  |  |  | Cruzain Inhibition 0’ (cruzain; [3]): 0.6%; Cruzain Inhibition 10’ (cruzain; [4]): 1.8%; TbrCatL Inhibition 0’ (TbrCatL; [3]): -3.2%; TbrCatL Inhibition 10’ (TbrCatL; [4]): -6.5%
